Assay results taken from ChEMBL document CHEMBL4477214.

How the values were obtained:
[1] = molecular target: Polymerase acidic protein (Influenza A virus (A/Puerto Rico/8/1934(H1N1)), UniProt P03433); assay: Inhibition of 8-histidine tagged influenza virus H1N1 N-terminal PA endonuclease expressed in Escherichia coli BL21 cells using single-stranded 5'-FAM fluorophore/3'-TAMRA quencher)-labeled 17-mer ssDNA-oligomer substrate measured over 45 mins by FRET analysis
MDCK = assay: Cytotoxicity against MDCK cells after 48 hrs by cell-titre glo luminescence assay; type: cell-based, Canis lupus familiaris; details: dog
Influenza A virus = assay: Antiviral activity against influenza A virus H1N1 ATCC VR-1737 infected in MDCK cells after 48 hrs by hemagglutination assay; type: functional, organism-based; details: H1N1 ATCC VR-1737, MDCK

Structure (SMILES) | IC50 [1] [µM] | also measured
CN(Cc1cc(=O)c(O)co1)c1cccc(F)c1 | 3.2 | 
CN(Cc1cc(=O)c(O)co1)c1ccncc1 | > 100 | pIC50 [1]: < 4
Cc1cc(=O)c(O)cn1C1CCOCC1 | 0.73 | 
CCOC(=O)c1c(C)n(-c2ccccc2)cc(O)c1=O | 5.3 | 
Cc1c(O)c(=O)ccn1-c1ccccc1 | 18 | 
Cc1cc(=O)c(O)cn1-c1ccc(-c2ccccc2)cc1 | 1.3 | 
COc1cccc(CNC(=O)c2c(C)occ(O)c2=O)c1 | 22.1 | 
Cc1occ(O)c(=O)c1C(=O)NCCc1ccccc1 | 11.3 | 
O=C(O)/C(O)=C/C(=O)C1(Cc2ccc(Cl)cc2)CCN(Cc2ccccc2)CC1 |  | CC50 (MDCK): 284 µM; EC50 (Influenza A virus): 9 µM
CN(Cc1cc(=O)c(O)co1)c1ccc(F)cc1 | 1.8 | 
Cc1c(O)c(=O)ccn1C1CCCCC1 | 14 | 
CS(=O)(=O)NCc1cc(=O)c(O)co1 | 4.8 | 
CCOC(=O)c1c(C)n(-c2ccc(Oc3ccccc3)cc2)cc(O)c1=O | 5.2 | 
O=c1cc(CNCc2ccccc2)occ1O | 2.7 | 
CN(Cc1cc(=O)c(O)cn1-c1ccc(-c2nnn[nH]2)cc1)c1ccc(Cl)cc1 |  | CC50 (MDCK): 280 µM
